Laboratory results taken from patent US20230116978A1, “METHOD FOR LIBERATING INTRACELLULAR MATERIAL FROM PLANT CELLS” (Deerland Enzymes, Inc., priority 2021, published 2023).

How the values were obtained:
[1] = Total antioxidant capacity, Folin-Ciocalteu assay (total phenolics assay); details: for Total antioxidant capacity: Folin-Ciocalteu, gallic acid reference
Procedure: Total antioxidant capacity was tested in the Folin-Ciocalteu assay (also known as the total phenolics assay). This assay makes use of the Folin-Ciocalteu reagent to measure antioxidants. The assay is performed by adding the Folin-Ciocalteu's phenol reagent to serial dilutions of extract, thoroughly mixing, and incubating for 5 minutes. Sodium carbonate is added, starting a chemical reaction producing a color. The reaction is allowed to continue for 30 minutes at 37° C. Optical absorbance is measured at 765 nm in a colorimetric plate reader. Gallic acid is used as a reference standard, and the data reported in Gallic Acid Equivalents per gram product.

[2] = system: human polymorphonuclear (PMN) cells; assay: ROS formation by inflammatory PMN cells (H2O2-triggered, DCF-DA, flow cytometry); type: cell-based; details: for effect on ROS formation by PMN cells (anti-/pro-inflammatory), in words: H2O2-triggered ROS
From the text: In measuring the effect on free radical formation by inflammatory cells, human polymorphonuclear (PMN) cells were used for testing effects of a product on ROS formation. PMN cells constitute approximately 70% of the white blood cells in humans. PMN cells produce high amounts of ROS upon certain inflammatory stimuli. Natural products may affect PMN cell ROS formation by three different mechanisms: 1. […] Triggering an anti-inflammatory cellular signal, leading to reduced ROS formation; 3. Triggering an immune reaction, leading to enhanced ROS formation. The effects of test products were measured by exposing freshly purified human PMN cells to the test products. During the incubation with a test product, any antioxidant compounds able to cross the cell membrane can enter the interior of the PMN cells, and compounds that trigger a signaling event can do so. Then the cells are washed, loaded with the DCF-DA dye, which turns fluorescent upon exposure to ROS. Formation of ROS is triggered by addition of H2O2. The fluorescence intensity of the PMN cells is evaluated by flow cytometry. The low fluorescence intensity of untreated control cells serves as a baseline and PMN cells treated with H2O2 alone serve as a positive control. […] The testing was performed on cells from a healthy donor. […]

human RBC = assay: Cellular antioxidant protection, CAP-e bioassay; type: cell-based; details: for Cellular antioxidant Protection (CAP-e value): human RBC, AAPH oxidation
Procedure: Cell-based antioxidant protection was measured via a CAP-e bioassay. […] The CAP-e bioassay was specifically designed to work with natural products and ingredients. The red blood cell (RBC) was used as the model cell type as it is an inert cell type, in contrast to other cell types such as PMN cells. The red blood cell-based assay was developed particularly to be able to assess antioxidants from complex natural products in a cell-based system, as well as help interpret subsequent data from more complex cellular models. Freshly purified human RBC are washed repeatedly in physiological saline, and then exposed to the test products. During the incubation with a test product, any antioxidant compounds able to cross the cell membrane can enter the interior of the RBC. Then the RBC are washed to remove compounds that were not absorbed by the cells, and loaded with the DCF-DA dye, which turns fluorescent upon exposure to reactive oxygen species (ROS). Oxidation is triggered by addition of the peroxyl free radical generator AAPH. The fluorescence intensity is evaluated. The low fluorescence intensity of untreated control cells serves as a baseline, and RBC treated with AAPH alone serve as a positive control for maximum oxidative damage. […] Based on the low fluorescence of the untreated control wells, and the high fluorescence of the cell cultures exposed to oxidative damage, the fluorescence intensity in cell cultures treated with test products prior to exposure to oxidative stress is used to calculate the percent inhibition of cellular oxidative stress.

Row | Cell lysing (human RBC; highest concentration tested) | Compound | Total antioxidant capacity [1] | effect on ROS formation by PMN cells (anti-/pro-inflammatory), in words [2] | total antioxidant capacity, comparison in words [1] | cellular antioxidant protection, comparison in words (human RBC) | Cellular antioxidant Protection (CAP-e value) (human RBC) | effect on ROS formation by PMN cells at the highest/higher doses ([2]; highest or higher doses)
1 |  | CC1=C(/C=C/C(C)=C/C=C/C(C)=C/C=C/C=C(C)/C=C/C=C(C)/C=C/C2=C(C)C(=O)[C@@H](O)CC2(C)C)C(C)(C)C[C@H](O)C1=O [Astaxanthin] | 2 mg GAE per gram | less anti-inflammatory capacity than the SOLARPLAST® post-aqueous fraction |  |  |  | 
2 | Cell lysing occurred | N[C@@H](CCC(=O)N[C@@H](CS)C(=O)NCC(=O)O)C(=O)O [L-glutathione, reduced] | 153 mg GAE per gram | less anti-inflammatory capacity than the SOLARPLAST® post-aqueous fraction | had more antioxidant capacity than SOLARPLAST® | had more antioxidant capacity than SOLARPLAST® | 619 μM GA/gram | robust increase in ROS formation
3 |  | Oc1ccc(C=Cc2cc(O)cc(O)c2)cc1 [Resveratrol] |  | considerably more anti-inflammatory capabilities than any of the fractions of SOLARPLAST® |  | had more antioxidant capacity than SOLARPLAST® | 235 μM GA/gram | 
